From patent US9856220B2 (AbbVie Deutschland GmbH & Co. KG, priority 2011, dated 2018) come the findings set out here.

Molecules are shown by their SMILES.

Chain of PDE10A (Q9Y233 whole entry, species assumed): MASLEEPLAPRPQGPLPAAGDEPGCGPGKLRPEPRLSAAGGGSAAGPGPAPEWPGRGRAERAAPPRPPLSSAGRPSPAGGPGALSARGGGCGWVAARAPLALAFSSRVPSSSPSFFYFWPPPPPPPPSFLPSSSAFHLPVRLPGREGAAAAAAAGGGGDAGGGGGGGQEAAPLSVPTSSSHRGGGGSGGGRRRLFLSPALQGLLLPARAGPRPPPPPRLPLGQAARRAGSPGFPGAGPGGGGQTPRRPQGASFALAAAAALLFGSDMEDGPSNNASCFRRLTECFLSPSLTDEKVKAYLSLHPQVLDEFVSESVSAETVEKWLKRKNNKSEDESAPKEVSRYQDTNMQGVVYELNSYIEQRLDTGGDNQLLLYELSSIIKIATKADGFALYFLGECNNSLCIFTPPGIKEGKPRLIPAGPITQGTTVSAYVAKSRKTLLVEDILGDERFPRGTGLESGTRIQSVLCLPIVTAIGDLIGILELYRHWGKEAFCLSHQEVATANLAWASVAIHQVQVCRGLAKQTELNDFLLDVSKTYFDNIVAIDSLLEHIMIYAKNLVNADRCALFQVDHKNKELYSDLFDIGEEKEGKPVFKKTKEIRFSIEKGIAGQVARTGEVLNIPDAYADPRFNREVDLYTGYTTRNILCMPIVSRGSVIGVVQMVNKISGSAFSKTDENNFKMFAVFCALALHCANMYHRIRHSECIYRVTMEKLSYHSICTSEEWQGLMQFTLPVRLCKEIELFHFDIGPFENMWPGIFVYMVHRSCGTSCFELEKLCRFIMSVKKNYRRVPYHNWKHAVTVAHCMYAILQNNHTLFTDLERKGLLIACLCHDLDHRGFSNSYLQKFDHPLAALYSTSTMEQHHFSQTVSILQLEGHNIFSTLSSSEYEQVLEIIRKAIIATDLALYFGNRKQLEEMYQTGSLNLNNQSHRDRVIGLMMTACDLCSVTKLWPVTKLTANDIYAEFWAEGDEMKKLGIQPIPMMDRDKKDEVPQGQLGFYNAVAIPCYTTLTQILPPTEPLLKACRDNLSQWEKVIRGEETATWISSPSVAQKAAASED

The assay concerns the target PDE10A (Homo sapiens (Human), UniProt Q9Y233). Put plainly: Measurement of PDE activity (recombinant PDE, cAMP HTRF). It is filed as biochemical. The note with it: 20 nM cyclic nucleotide substrate, 60 minutes at 29 C. The procedure:
a) Measurement of PDE Activity
The recombinant PDE proteins are used in in vitro enzymatic reaction for measurement of PDE activity. These recombinant proteins, including PDE10A (human, rat and mouse PDE10) and isoforms of PDEs 1, 3, 4, and 5, were purchased from commercial vendor BPS Bioscience. The enzymatic activity of PDEs was determined by cAMP measurement kit from CisBio (IBA) using HTRF technology.
The PDE enzymatic reaction was carried out in assay buffer (20 mM Tris-HCl pH7.5, 10 mM MgCl2, 0.1% bovine serum albumin) containing enzyme and substrate. […] The substrate cyclic nucleotide (cAMP or cGMP) concentration used in the assay was 20 nM for PDE10, and 100 nM for other PDEs. The inhibitory effect of compound was determined by incubating various concentration of inhibitor in the enzymatic assay. […] Next, the compound at varying concentration was mixed with PDE enzyme. The reaction was initiated by addition of cyclic nucleotide substrate, and incubated for 60 minutes at 29 C. The reaction was stopped by addition of lysis buffer from assay kit. The cAMP-d2 and anti-cAMP cryptate in the lysis buffer detected the level of cAMP left from the PDE hydrolysis reaction. […] Thus, IC50 value of inhibitor can be obtained by plotting inhibitor concentration against PDE activity at that concentration.
With `CCC(CC)n1cc(C(=O)NCc2cc(C)sc2C)c2cc(OC)c(OC)cc2c1=O` [Example 242, N-((2,5-dimethylthiophen-3-yl)methyl)-6,7-dimethoxy-1-oxo-2-(pentan-3-yl)-1,2-dihydroisoquinoline-4-carboxamide], the IC50 lay in the range of 200 to 500 nM. For the compound `CCn1cc(C(=O)NCc2cccc(F)c2F)c2cc(OC)c(OC)cc2c1=O` [Example 33, 2-Ethyl-6,7-dimethoxy-1-oxo-1,2-dihydro-isoquinoline-4-carboxylic acid 2,3-difluoro-benzylamide], the IC50 is 200 to 500 nM.

On to `CCC(CC)n1cc(C(=O)NCc2ccc(C)s2)c2cc(OC)c(OC)cc2c1=O` [Example 237, 6,7-Dimethoxy-N-((5-methylthiophen-2-yl)methyl)-1-oxo-2-(pentan-3-yl)-1,2-dihydroisoquinoline-4-carboxamide], for which the IC50 lay within 100 to 200 nM. For `CCn1cc(C(=O)NCc2cccnc2)c2cc(OC)c(OC)cc2c1=O` [Example 148, 2-Ethyl-6,7-dimethoxy-1-oxo-N-(pyridin-3-ylmethyl)-1,2-dihydroisoquinoline-4-carboxamide] the value was 200 to 500 nM; for `CCn1cc(C(=O)NCc2ccc(C)cc2OC(C)C)c2cc(OC)c(OC)cc2c1=O` [Example 302, 2-Ethyl-N-(2-isopropoxy-4-methylbenzyl)-6,7-dimethoxy-1-oxo-1,2-dihydroisoquinoline-4-carboxamide], 200 to 500 nM; for `CCc1nc(CNC(=O)c2cn(C(CC)CC)c(=O)c3cc(OC)c(OC)cc23)cs1` [Example 255, N-((2-Ethylthiazol-4-yl)methyl)-6,7-dimethoxy-1-oxo-2-(pentan-3-yl)-1,2-dihydroisoquinoline-4-carboxamide], 200 to 500 nM. For `CCC(CC)n1cc(C(=O)NC2CCc3cc(F)ccc32)c2cc(OC)c(OC)cc2c1=O` (centres unmarked) [Example 252, N-(5-Fluoro-2,3-dihydro-1H-inden-1-yl)-6,7-dimethoxy-1-oxo-2-(pentan-3-yl)-1,2-dihydroisoquinoline-4-carboxamide] the value was 100 to 200 nM; for `CCC(CC)n1cc(C(=O)NC2COc3ccccc32)c2cc(OC)c(OC)cc2c1=O` (centres unmarked) [Example 194, 2-(1-Ethyl-propyl)-6,7-dimethoxy-1-oxo-1,2-dihydro-isoquinoline-4-carboxylic acid (2,3-dihydro-benzofuran-3-yl)-amide], less than 100 nM. As for `CCn1cc(C(=O)NCc2ccc(F)cc2)c2cc(OC)c(OC)cc2c1=O` [Example 32, 2-Ethyl-6,7-dimethoxy-1-oxo-1,2-dihydro-isoquinoline-4-carboxylic acid 4-fluoro-benzylamide], the IC50 fell in the range of 200 to 500 nM. With `CCn1cc(C(=O)NCc2ccccc2Cl)c2cc(OC)c(OC)cc2c1=O` [Example 162, N-(2-Chlorobenzyl)-2-ethyl-6,7-dimethoxy-1-oxo-1,2-dihydroisoquinoline-4-carboxamide], the IC50 is 200 to 500 nM. In the case of `CCC(CC)n1cc(C(=O)N[C@@H]2CCc3ccccc32)c2cc(OC)c(OC)cc2c1=O` [Example 191, 2-(1-Ethyl-propyl)-6,7-dimethoxy-1-oxo-1,2-dihydro-isoquinoline-4-carboxylic acid (R)-indan-1-ylamide], the IC50 was in the range of 200 to 500 nM. The result for `CCn1cc(C(=O)NCc2ccc(F)c(F)c2)c2cc(OC)c(OC)cc2c1=O` [Example 36, 2-Ethyl-6,7-dimethoxy-1-oxo-1,2-dihydro-isoquinoline-4-carboxylic acid 3,4-difluoro-benzylamide] reads 100 to 200 nM; that for `CCn1cc(C(=O)NCc2ccc(C)cc2OCC2CCCO2)c2cc(OC)c(OC)cc2c1=O` (centres unmarked) [Example 305, 2-Ethyl-6,7-dimethoxy-N-(4-methyl-2-((tetrahydrofuran-2-yl)methoxy)benzyl)-1-oxo-1,2-dihydroisoquinoline-4-carboxamide], 200 to 500 nM; that for `CCn1cc(C(=O)N2Cc3ccccc3C2)c2cc(OC)c(OC)cc2c1=O` [Example 51, 4-(1,3-Dihydro-isoindole-2-carbonyl)-2-ethyl-6,7-dimethoxy-2H-isoquinolin-1-one], 200 to 500 nM. The result for `CCn1cc(C(=O)NCc2cccc(F)c2)c2cc(OC)c(OC)cc2c1=O` [Example 31, 2-Ethyl-6,7-dimethoxy-1-oxo-1,2-dihydro-isoquinoline-4-carboxylic acid 3-fluoro-benzylamide] reads 200 to 500 nM; that for `CCn1cc(C(=O)NC2CCc3c(F)cccc32)c2cc(OC)c(OC)cc2c1=O` (centres unmarked) [Example 173, 2-Ethyl-N-(4-fluoro-2,3-dihydro-1H-inden-1-yl)-6,7-dimethoxy-1-oxo-1,2-dihydroisoquinoline-4-carboxamide], 200 to 500 nM; that for `CCn1cc(C(=O)NCc2c(F)cccc2F)c2cc(OC)c(OC)cc2c1=O` [Example 35, 2-Ethyl-6,7-dimethoxy-1-oxo-1,2-dihydro-isoquinoline-4-carboxylic acid 2,6-difluoro-benzylamide], 200 to 500 nM.

As for `CCn1cc(C(=O)NCc2ccccc2OC)c2cc(OC)c(OC)cc2c1=O` [Example 140], the IC50 was in the range of 200 to 500 nM. As for `CCn1cc(C(=O)NCCC(C)(C)C)c2cc(OC)c(OC)cc2c1=O` [Example 24, 2-Ethyl-6,7-dimethoxy-1-oxo-1,2-dihydro-isoquinoline-4-carboxylic acid (3,3-dimethyl-butyl)-amide], the IC50 lay in the range of 200 to 500 nM. For `CCC(CC)n1cc(C(=O)NCc2scnc2C)c2cc(OC)c(OC)cc2c1=O` [Example 249, 6,7-Dimethoxy-N-((4-methylthiazol-5-yl)methyl)-1-oxo-2-(pentan-3-yl)-1,2-dihydroisoquinoline-4-carboxamide], the IC50 was 200 to 500 nM.

As to `CCn1cc(C(=O)NC2CCc3c(C)cccc32)c2cc(OC)c(OC)cc2c1=O` (centres unmarked) [Example 174, 2-Ethyl-6,7-dimethoxy-N-(4-methyl-2,3-dihydro-1H-inden-1-yl)-1-oxo-1,2-dihydroisoquinoline-4-carboxamide], the IC50 lay in the range of 200 to 500 nM. As to `CCn1nc(C(=O)NC2CCc3ncccc32)c2cc(OC)c(OC)cc2c1=O` (centres unmarked) [Example 129, 3-Ethyl-6,7-dimethoxy-4-oxo-3,4-dihydro-phthalazine-1-carboxylic acid (6,7-dihydro-5H-[1]pyrindin-5-yl)-amide], the IC50 was less than 100 nM.

In the case of `CCC(CC)n1cc(C(=O)NCc2ccn(C)n2)c2cc(OC)c(OC)cc2c1=O` [Example 269, 6,7-Dimethoxy-N-((1-methyl-1H-pyrazol-3-yl)methyl)-1-oxo-2-(pentan-3-yl)-1,2-dihydroisoquinoline-4-carboxamide], the IC50 was in the range of 200 to 500 nM. For `CCC(CC)n1cc(C(=O)NC2CCc3c(C)cccc32)c2cc(OC)c(OC)cc2c1=O` (centres unmarked) [Example 254, 6,7-Dimethoxy-N-(4-methyl-2,3-dihydro-1H-inden-1-yl)-1-oxo-2-(pentan-3-yl)-1,2-dihydroisoquinoline-4-carboxamide] the value was less than 100 nM. Consider `CCC(CC)n1cc(C(=O)NCc2ccncc2)c2cc(OC)c(OC)cc2c1=O` [Example 261, 6,7-Dimethoxy-1-oxo-2-(pentan-3-yl)-N-(pyridin-4-ylmethyl)-1,2-dihydroisoquinoline-4-carboxamide], for which the IC50 was 200 to 500 nM. As to `CCC(CC)n1cc(C(=O)NCc2cc(C)cs2)c2cc(OC)c(OC)cc2c1=O` [Example 257, 6,7-Dimethoxy-N-((4-methylthiophen-2-yl)methyl)-1-oxo-2-(pentan-3-yl)-1,2-dihydroisoquinoline-4-carboxamide], the IC50 fell in the range of 100 to 200 nM.
